Where “and” joins values, the source holds several entries; their conditions need not be identical. Equal entries are not always repeated.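 A five-concentration, 48-hour dose response in 96-well plates underlies each endpoint, interpolated linearly between surrounding concentrations. GI50: concentration for 50% inhibition of growth. TGI: total growth inhibition.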
What was measured:
Assay in all cases: NCI tumour cell line growth inhibition, 48 h
HL-60(TB) leukemia = tested on: HL-60(TB) leukemia
MDA-MB-231 breast = tested on: MDA-MB-231 breast
SR leukemia = tested on: SR leukemia
EKVX NSCLC = tested on: EKVX NSCLC
SW-620 colon = tested on: SW-620 colon
BT-549 breast = tested on: BT-549 breast
MALME-3M melanoma = tested on: MALME-3M melanoma
HCT-116 colon = tested on: HCT-116 colon
TK-10 renal = tested on: TK-10 renal
K-562 leukemia = tested on: K-562 leukemia

Compound	GI50 (HL-60(TB) leukemia)	TGI (HL-60(TB) leukemia)	GI50 (MDA-MB-231 breast)	TGI (MDA-MB-231 breast)	GI50 (SR leukemia)	TGI (SR leukemia)	GI50 (EKVX NSCLC)	TGI (EKVX NSCLC)	GI50 (SW-620 colon)	TGI (SW-620 colon)	GI50 (BT-549 breast)	TGI (BT-549 breast)	GI50 (MALME-3M melanoma)	TGI (MALME-3M melanoma)	GI50 (HCT-116 colon)	TGI (HCT-116 colon)	GI50 (TK-10 renal)	TGI (TK-10 renal)	GI50 (K-562 leukemia)	TGI (K-562 leukemia)
CN(C)CCNC(=O)NC[C@H]1CC[C@@H]2[C@H](O1)c1cc(C(F)(F)F)ccc1N[C@H]2c1ccccc1	0.154 µM	0.672 µM	0.24 µM	3.6 µM	0.0411 µM	15.1 µM	11.1 µM	> 100 µM	0.0765 µM	17.1 µM	0.389 µM	14.7 µM	0.582 µM	22.4 µM	0.0414 µM	14.7 µM	9.78 µM	27.5 µM	0.0757 µM	14.8 µM
COc1cccc2c1C(=O)c1c(O)c3c(c(O)c1C2=O)CC(O)(C(=O)CO)CC3OC1CC(N)C(O)C(C)O1 (stereo not given)	2.84 µg/mL and 26.4 µg/mL	75 µg/mL and > 150 µg/mL	44.1 µg/mL and 79.3 µg/mL	75 µg/mL and > 150 µg/mL	0.465 µg/mL and 1.18 µg/mL	7.2 µg/mL and 6.76 µg/mL	75 µg/mL	75 µg/mL	7.14 µg/mL and 21.2 µg/mL	75 µg/mL and > 150 µg/mL	34.6 µg/mL and 108 µg/mL	75 µg/mL and > 150 µg/mL	10 µg/mL and 81.4 µg/mL	75 µg/mL and > 150 µg/mL	7.26 µg/mL and 17.4 µg/mL	75 µg/mL and > 150 µg/mL	75 µg/mL and 30 µg/mL	75 µg/mL and > 150 µg/mL	9.4 µg/mL and 25.2 µg/mL	75 µg/mL and > 150 µg/mL
Nc1ncnc2c1ccn2[C@@H]1O[C@H]([C@H](O)c2ccc(Cl)c(F)c2)[C@@H](O)[C@H]1O	> 100 µM	> 100 µM	> 100 µM	> 100 µM	> 100 µM	> 100 µM	> 100 µM	> 100 µM	> 100 µM	> 100 µM	> 100 µM	> 100 µM	> 100 µM	> 100 µM	> 100 µM	> 100 µM	> 100 µM	> 100 µM	> 100 µM	> 100 µM
Cc1nccc2c3ccc(OCc4cn(-c5ccc(Cl)cc5)nn4)cc3n(CC(C)C)c12	0.886 µM	2.07 µM	4.69 µM	26.5 µM	1.03 µM	5.53 µM	2.14 µM	32.6 µM	3.33 µM	> 33.3 µM	1.51 µM	7.12 µM	4.62 µM	13 µM	1.3 µM	5.65 µM	6.89 µM	19.5 µM	0.992 µM	> 33.3 µM
CCn1ccc(NS(=O)(=O)c2ccc(N)cc2)nc1=O	> 100 µM	> 100 µM	> 100 µM	> 100 µM	> 100 µM	> 100 µM	> 100 µM	> 100 µM	> 100 µM	> 100 µM	> 100 µM	> 100 µM	> 100 µM	> 100 µM	> 100 µM	> 100 µM	> 100 µM	> 100 µM	> 100 µM	> 100 µM

— PubChem BioAssay (NCI)
